Tests used:
rat hearts = experiment: No-flow ischemia-reperfusion of hearts after 2 weeks of Se supplementation (Example 2); type: in vivo; conditions: 23 μM M40403 in perfusate with sodium selenite 50 μg/kg/day for 2 weeks; compared to M40403 without sodium selenite
Experimental: Hearts were isolated from rats and perfused in the Langendorff mode as previously described (Jain et al., Am J Physiol. 2001; 280:H569-H575; Lim et al., Am J Physiol. 1999; 277:H2083-H2090). Briefly, animals were injected intraperitoneally with heparin (10,000 U/kg) and anesthetized with a mixture of ketamine (150 mg/kg) and xylazine (15 mg/kg). The thorax was rapidly opened and the heart excised and arrested in ice-cold saline. A short perfusion cannula was inserted into the aortic root to initiate retrograde perfusion. The hearts were perfused with Krebs-Henseleit buffer (in mmol/L: NaCl 118, KCl 4.7, CaCl2 1.8, KH2PO4 1.2, MgSO4 1.2, NaHCO3 24.0, and glucose 10.0) equilibrated with 95% O2/5% CO2 to yield a pH of 7.4. A thin cannula was pierced through the apex of the left ventricle (LV) to vent thebesian drainage. A ventricular balloon, composed of polyvinyl chloride film and connected to a polyethylene tube, was inserted into the LV through the mitral valve via an incision in the left atrium. […]
Hearts were treated first for 2 weeks with or without Se supplementation (as sodium selenite, 50 μg/kg/day), after which they were subjected to no-flow ischemia-reperfusion with 23 μM of the SOD mimetic M40403 added to the perfusate. EDP and DevP (as measures of ventricular performance) were monitored over time following restoration of perfusion. […]

[1] = test system: isolated rat hearts (wild-type and GPx-TG); experiment: Langendorff isolated heart, zero-flow ischemia followed by reperfusion (Example 1); type: ex vivo; conditions: compared with vehicle control
Experimental: Hearts were isolated from rats and perfused in the Langendorff mode as previously described (Jain et al., Am J Physiol. 2001; 280:H569-H575; Lim et al., Am J Physiol. 1999; 277:H2083-H2090). Briefly, animals were injected intraperitoneally with heparin (10,000 U/kg) and anesthetized with a mixture of ketamine (150 mg/kg) and xylazine (15 mg/kg). The thorax was rapidly opened and the heart excised and arrested in ice-cold saline. A short perfusion cannula was inserted into the aortic root to initiate retrograde perfusion. The hearts were perfused with Krebs-Henseleit buffer (in mmol/L: NaCl 118, KCl 4.7, CaCl2 1.8, KH2PO4 1.2, MgSO4 1.2, NaHCO3 24.0, and glucose 10.0) equilibrated with 95% O2/5% CO2 to yield a pH of 7.4. A thin cannula was pierced through the apex of the left ventricle (LV) to vent thebesian drainage. A ventricular balloon, composed of polyvinyl chloride film and connected to a polyethylene tube, was inserted into the LV through the mitral valve via an incision in the left atrium. The balloon was connected to a pressure transducer (Statham P23Db, Gould) for recording of LV pressures. The balloon was inflated with saline to adjust the end-diastolic pressure (EDP) to 10 mm Hg, and the balloon volume was held constant for the duration of the experiment. Hearts were paced (Grass Instruments) with platinum wires placed on the epicardial surface of the right ventricle. Coronary perfusion pressure was held constant during the duration of the experiment at 80 mm Hg. An inline ultrasonic flow probe (Transonics Systems Inc) was positioned immediately above the aortic cannula to measure coronary flow. Systolic pressure, EDP, and coronary flow were collected online by use of a commercially available data acquisition system (PowerLab ADInstruments). Developed pressure (DevP) (the difference between systolic and diastolic pressures) and EDP were used as indices of contractile and diastolic function, respectively.
During 20 minutes of baseline stabilization, all hearts were maintained at 37° C. and paced at 7 Hz. Hearts were subsequently subjected to 15 minutes of zero-flow ischemia followed by 30 minutes of reperfusion with or without a reperfusion solution containing 23 μM of the SOD mimetic M40403. The EDP was higher and DevP was lower in the wild-type (WT) rats with this treatment compared with vehicle control.

[2] = GPx-TG (glutathione peroxidase-1 transgene) with added dietary selenium, 23 μM M40403 in reperfusion solution
[3] = wild-type (WT) rats, 15 min zero-flow ischemia, 30 min reperfusion with 23 μM M40403

Q: What does the source list for `[Cl-].[Cl-].[Mn+2].c1cc2nc(c1)CN[C@@H]1CCCC[C@H]1NCCN[C@@H]1CCCC[C@H]1NC2` [M40403]?
A: end-diastolic pressure (EDP) (rat hearts): improved EDP (i.e., lower EDP); developed pressure (DevP) [1, 2]: no change; end-diastolic pressure (EDP) [1, 2]: improved EDP (i.e., lower EDP); developed pressure (DevP) [1, 3]: lower; end-diastolic pressure (EDP) [1, 3]: higher

Source: US20080139525A1, “ANTIOXIDANT THERAPIES” (The Brigham and Women's Hospital, Inc., priority 2006, published 2008)
